Paper PMC11489250, “Optimized methods for measuring competitive binding of chemical substances to thyroid hormone distributor proteins transthyretin and thyroxine binding globulin” (Archives of Toxicology, 2024)
Where two headings read alike, the source gives them in different places.

Tests used:
Human TTR [1] = biological target: T1, Human TTR (Homo sapiens, UniProt P02766); experiment: Optimized competitive TTR-binding assay with FITC-T4 (fluorescence intensity readout); settings: for T4EQ concentration (TTR binding): T4EQi = highest human blood concentration x T4-REPi; for Contribution to T4EQ concentration (TTR binding): mixture of highest human blood concentrations of five model compounds; for IC20: read-out: TTR IC20
T1 construct: Transthyretin (prealbumin, TTR) >95% from human plasma; purchased Sigma Aldrich (Zwijndrecht, The Netherlands); host or cells: human plasma
Method: All TTR-binding experiments were performed in black 96-well polystyrene nonbinding plates. Experimental wells and background wells were prepared in triplicate per plate. […] Fluorescence intensity (FI) was measured at λex = 485 ± 20 nm and λem = 528 ± 20 nm (CLARIOstar Plus microplate reader, BMG LABTECH).
To test the effect of the change in temperature and incubation time, a saturation experiment (N = 3, n = 3) was performed in Tris–HCl buffer (0.1 M Tris (Thermo Scientific, Rockford, USA), 0.1 M NaCl (Merck KGaA, Darmstadt, Germany), 1 mM EDTA (VWR International, B.V. Amsterdam, The Netherlands); pH 8.0). […] Two 96-well plates were prepared at the same time. After shaking for 5 min on a plate shaker, one prepared plate was incubated on ice (at 4 °C) and another plate was incubated at room temperature (22 °C). For both plates the fluorescence was measured at different time points: 5 min, 15 min, 60 min and 120 min.
First, 48 µL Tris–HCl buffer (pH 8.0) was pipetted to the wells, followed by 2 µL of the compound (in DMSO). […] Final solvent (DMSO) concentrations in all conditions amounted to 1%. All plates were shaken for 5 min on a plate shaker, followed by an incubation for 15 min at room temperature. The standard operation procedure (SOP) is provided in Supplementary Information file (Section 3).
Calculations of the ICX, Kd and Ki values of TTR-binding assays are described in the Supplementary Information file (Section 3).
3.7.5 The competitive TTR binding screening assay
3.7.8 Processing data to determine IC50 and calculate Ki value

[2] = biological target: T2, thyroxine-binding globulin (TBG) (Homo sapiens, UniProt P05543); experiment: Competitive TBG-binding assay with FITC-T4 (fluorescence polarization readout); settings: 5 nM FITC-T4, 10 nM TBG, RT
T2 construct: purchased Bio-rad Laboratories, Inc. (Veenendaal, The Netherlands)
T2 sequence (P05543 21-415): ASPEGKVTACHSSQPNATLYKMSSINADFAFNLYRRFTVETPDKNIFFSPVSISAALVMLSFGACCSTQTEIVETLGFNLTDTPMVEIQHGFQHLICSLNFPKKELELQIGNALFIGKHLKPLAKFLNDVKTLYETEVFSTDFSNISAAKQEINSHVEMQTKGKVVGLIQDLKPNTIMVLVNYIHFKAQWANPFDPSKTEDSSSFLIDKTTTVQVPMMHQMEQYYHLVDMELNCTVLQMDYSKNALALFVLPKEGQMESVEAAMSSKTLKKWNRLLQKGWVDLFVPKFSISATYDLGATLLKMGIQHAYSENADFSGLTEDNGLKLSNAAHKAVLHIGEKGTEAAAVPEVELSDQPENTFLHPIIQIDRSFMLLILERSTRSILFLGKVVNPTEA
Method: Prepared plates were first shaken for 5 min and then incubated for 15 min at room temperature before being analysed by the microplate reader at FP mode (CLARIOstar Plus, BMG LABTECH).
Accordingly, dilution series of all compounds were prepared in DMSO. First, 24 µL Tris–HCl buffer was pipetted to the wells, followed by 1 µL of the compound stock solution. […] Solvent (DMSO) concentrations in all conditions were 1%. The plates were shaken for 5 min on a plate shaker, followed by an incubation for 15 min at room temperature.
The adjusted polarization was set to a reference value of 35 mP. The adjustment gain values ranged from 1900 to 2200. The plate layout of TBG-binding assay is provided in Supplementary Information file (Section 4).
For the competitive TBG-binding experiments, concentration–response curves were fitted:2 r=rmin+rmax-rmin/1+IC50/X^HillSlope with rmin and rmax being the minimum and maximum anisotropy values, respectively. X is the concentration of added competitor. Equations that were used for the calculation of the ICX and Ki values in the TTR-binding assays (Supplementary Information, Section 3) were also used to determine the ICX and Ki values in TBG-binding assays without any changes, respectively. The single Kd, IC20, IC50 and Ki were determined based on replicates (n) in each experiment, and then the average and confidence intervals were determined based on the Kd, IC20, IC50 and Ki values from sperate experiments (N).
Alternatively, another approach to determine ICX, Kd and Ki values based on a theoretical model of ligand–protein binding biochemistry was taken as described in detail in the Supplementary Information file (Section 5). For this approach, R was used to fit the model to the data. The results obtained from the two approaches were compared in Section 3.4.
S5.2 Ki and IC50 estimation

Human TTR [3] = biological target: T1, Human TTR; settings: FITC-T4 110 nM, human TTR 30 nM, 4 °C, 2 h; ref Hamers et al. [2020]; read-out: TTR literature Ki; cited from earlier work
TTR = biological target: TTR; parameters: method as in Ren et al. [2016]; settings: ref Ren et al. [2016]; read-out: TTR literature Ki; cited from earlier work
TBG = biological target: TBG; parameters: method as in Ren et al. [2016]; settings: ref Ren et al. [2016]; read-out: TBG Ki; cited from earlier work
[4] = TTR IC50, 110 nM FITC-T4, 30 nM TTR, RT, 15 min, average [95% CI]
[5] = TTR IC50 [95% CI], 55 nM FITC-T4, 30 nM TTR, RT (5 min)
[6] = TTR IC50 [95% CI], 55 nM FITC-T4, 30 nM TTR, RT (15 min)
[7] = TTR IC50 [95% CI], 55 nM FITC-T4, 30 nM TTR, RT (60 min)
[8] = TTR IC50 [95% CI], 55 nM FITC-T4, 30 nM TTR, RT (120 min)
[9] = TTR IC50 [95% CI], 55 nM FITC-T4, 30 nM TTR, on ice (120 min)
[10] = TTR Ki [95% CI], 55 nM FITC-T4, 30 nM TTR, RT (5 min)
[11] = TTR Ki [95% CI], 55 nM FITC-T4, 30 nM TTR, RT (15 min)
[12] = TTR Ki [95% CI], 55 nM FITC-T4, 30 nM TTR, RT (60 min)
[13] = TTR Ki [95% CI], 55 nM FITC-T4, 30 nM TTR, on ice (120 min)
[14] = TTR Ki, 110 nM FITC-T4, 30 nM TTR, RT, 15 min, derived from IC20, average [95% CI]

SMILES	displacement of FITC-T4 from TTR (in words) (Human TTR [1]; 110 nM FITC-T4, 30 nM TTR, RT)	inhibition of the FITC-T4 binding to TBG (in words) [2]	Ki (Human TTR [3]) [nM]	T4EQ concentration (TTR binding) (Human TTR [1]) [nM]	IC50 (Human TTR [1]; [4]) [nM]	IC50 (Human TTR [1]; [5]) [nM]	IC50 (Human TTR [1]; [6]) [nM]	IC50 (Human TTR [1]; [7]) [nM]	IC50 (Human TTR [1]; [8]) [nM]	IC50 (Human TTR [1]; [9]) [nM]	Ki (Human TTR [1]; [10]) [nM]	Ki (Human TTR [1]; [11]) [nM]	Ki (Human TTR [1]; [12]) [nM]	Ki (Human TTR [1]; [13]) [nM]	Ki (Human TTR [1]; [14]) [nM]	Contribution to T4EQ concentration (TTR binding) (Human TTR [1]) [%]	IC20 (Human TTR [1]) [nM]	Ki (TTR) [nM]	Ki (Human TTR [1]; TTR Ki [95% CI], 55 nM FITC-T4, 30 nM TTR, RT (120 min)) [nM]	Ki (TBG) [nM]
OC[C@@H](O)[C@@H](O)[C@H](O)[C@H](O)CO [D-mannitol]	Except for D-mannitol, all compounds displaced FITC-T4 from TTR	no inhibition	–	–	–	–	–	–	–	–	–	–	–	–	–	–	–	–	–	–
O=C(O)C(F)(F)C(F)(F)C(F)(F)C(F)(F)C(F)(F)C(F)(F)C(F)(F)F [PFOA, perfluorooctanoic acid]	–	No (or only limited) inhibition	1100	1.26	763	500	496	459	460	461	268	280	304	353	568	6.6	267	60	–	–
O=S(=O)(O)C(F)(F)C(F)(F)C(F)(F)C(F)(F)C(F)(F)C(F)(F)C(F)(F)C(F)(F)F [PFOS, Perfluorooctanesulfonic acid]	–	No (or only limited) inhibition	160	9.73	271	191	189	196	194	179	143	133	127	171	243	50.9	118	–	133	–
O=C(O)C(F)(F)C(F)(F)C(F)(F)C(F)(F)C(F)(F)C(F)(F)C(F)(F)C(F)(F)C(F)(F)C(F)(F)C(F)(F)C(F)(F)F [PFTA, perfluorotridecanoic acid]	–	–	–	–	–	–	–	–	–	–	–	–	–	–	–	–	–	–	–	23000
